In one data set the test system is HL-60. The data set is described as follows: Antiproliferative activity against human HL-60 cells incubated for 48 hrs by CCK8 assay. The data set is classed as functional, cell-based. Particulars: HL-60, 48 h. (Tetrazolium assays rely on reduction of a dye to a coloured formazan, in cell work by metabolically active cells.)
Data set [1] has as its system Candida albicans. The data set is described as follows: microbe, parasite or virus in culture. The data set is classed as functional. Particulars: 0304103.
Description: Antifungal activity against Candida albicans 0304103 assessed as microbial growth inhibition
For another data set, the system named is K562. The data set is described as follows: Antiproliferative activity against human K562 cells incubated for 48 hrs by CCK8 assay. The data set is classed as functional, cell-based. Conditions: K562, 48 h.
In data set [2] the test system is Candida albicans. The data set can be described thus: microbe, parasite or virus in culture. The data set is classed as functional. Particulars: 0304103, time 24 hrs.
Description: Synergetic antifungal activity against Candida albicans 0304103 assessed as microbial growth inhibition incubated for 24 hrs in the presence of fluconazole by checkerboard microdilution method
Another data set deals with Histone deacetylase. The data set is described as follows: Inhibition of total HDAC in human HUVEC cells using Boc-Lys(Ac)-AMC as substrate preincubated for 12 hrs followed by substrate addition measured after 6 hrs by microtiter plate reader analysis. Format: cell-based.
A further data set has as its target Histone deacetylase 1 (Homo sapiens, UniProt Q13547). The data set is described as follows: Inhibition of full-length recombinant human HDAC1 (1 to 482 residues) expressed in baculovirus infected insect cells using […] as substrate incubated for 30 mins by fluorescence based analysis. Further details: species or system Insect cell.
The next data set can be described thus: in vitro. Particulars: human, HUVEC cells.
Another data set deals with Cryptococcus neoformans. The data set is described as follows: Antifungal activity against Cryptococcus neoformans H99 assessed as fungal growth inhibition incubated for 24 hrs by broth dilution method. Format: functional. (In general: Dilution methods test growth across graded concentrations, often in twofold steps.)
The subject of data set [3] is Candida albicans. The data set is classed as functional, 0304103. Conditions: time 24 hrs.
Description: Synergetic antifungal activity against Candida albicans 0304103 assessed as fractional inhibitory concentration index incubated for 24 hrs in the presence of fluconazole by checkerboard microdilution method
For data set [4], the system named is Candida albicans. The data set is described as follows: Antifungal activity against Candida albicans SC5314 assessed as fungal growth inhibition incubated for 24 hrs by broth dilution method. Format: functional.
A further data set concerns HEL. The data set can be described thus: Antiproliferative activity against human HEL cells incubated for 48 hrs by CCK8 assay. Format: functional, cell-based.

Each structure is given as a SMILES string. Values after ≈ are worked out from the molar mass of the structure shown. Where only a bound is given, the exact number is not on record here.

Chain of Histone deacetylase 1 (Q13547 whole entry, the tested form may be a part): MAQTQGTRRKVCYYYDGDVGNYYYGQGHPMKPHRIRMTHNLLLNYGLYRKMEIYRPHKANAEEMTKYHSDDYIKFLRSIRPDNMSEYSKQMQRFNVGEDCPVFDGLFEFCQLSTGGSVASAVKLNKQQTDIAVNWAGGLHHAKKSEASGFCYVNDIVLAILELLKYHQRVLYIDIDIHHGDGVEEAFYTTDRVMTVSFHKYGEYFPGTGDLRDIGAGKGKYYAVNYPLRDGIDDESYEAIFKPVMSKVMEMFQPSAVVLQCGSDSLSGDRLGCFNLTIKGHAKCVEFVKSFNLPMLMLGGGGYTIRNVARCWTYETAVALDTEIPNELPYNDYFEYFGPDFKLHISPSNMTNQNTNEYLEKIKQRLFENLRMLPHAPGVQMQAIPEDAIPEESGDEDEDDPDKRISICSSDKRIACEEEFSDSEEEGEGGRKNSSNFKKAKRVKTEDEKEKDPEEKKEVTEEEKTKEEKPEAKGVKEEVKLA
Description for in vitro: Cytotoxicity against HUVECs assessed as inhibition of cell growth incubated for 48 hrs by CCK8 assay

Broadly, the IC50 is the concentration at which inhibition is half-maximal. With `Cc1nnc2n1-c1ccccc1C(c1ccccc1)=N[C@H]2CC(=O)Nc1ccc(CC(=O)NO)cc1`, the IC50 with HL-60 is 4.4 µM; in the data set on K562, more than 10 µM; at Histone deacetylase, 6.5 µM; at Histone deacetylase 1, 0.73 µM; in the data set with HEL, more than 10 µM. In addition, the MIC80 was more than 64 µg/mL in the data set with Candida albicans [1], 8 µg/mL (≈ 16.6 µM) in the data set on Candida albicans [2], 32 µg/mL (≈ 66.6 µM) in the data set on Cryptococcus neoformans and more than 64 µg/mL in the data set on Candida albicans [4]. Further, the half-maximal inhibitory concentration (IC50) at 48 h in “in vitro” was 24 µM. Further, the “fractional inhibitory concentration index (FICI)” value with Candida albicans [3] is 0.19.

`Cc1nnc2n1-c1ccc(Cl)cc1C(c1ccccc1Cl)=N[C@H]2CC(=O)NCc1ccc(C(=O)NO)cc1`: the IC50 in the data set with HL-60 was more than 10 µM; in the data set on K562, more than 10 µM; at Histone deacetylase, 3.4 µM; on Histone deacetylase 1, 1.9 µM; in the data set on HEL it was more than 10 µM. Moreover, the MIC80 against Candida albicans [1] was more than 64 µg/mL; against Candida albicans [2], 8 µg/mL (≈ 14.6 µM); in the data set with Cryptococcus neoformans, 16 µg/mL (≈ 29.1 µM); in the data set with Candida albicans [4] it was more than 64 µg/mL. The same compound yielded a concentration for half-maximal inhibition (IC50) at 48 h in “in vitro” of 48 µM. Further, in the data set with Candida albicans [3], the “fractional inhibitory concentration index (FICI)” value came out at 0.16.

For the origin of these results see ChEMBL document CHEMBL5331104, “Discovery of BRD4-HDAC Dual Inhibitors with Improved Fungal Selectivity and Potent Synergistic Antifungal Activity against Fluconazole-Resistant Candida albicans” (J Med Chem, 2023).
